# Test results: US10023559B2 (Hoffmann-La Roche Inc., priority 2014, dated 2018)
# What was measured:
# rat TAAR1 = rat TAAR1 (Rattus norvegicus (Rat), UniProt Q923Y9); test: Radioligand binding assay on rat TAAR1; settings: for Ki: read-out: Ki(μM) rat, rat TAAR1, HEK-293 membranes, second value of cell pair mouse/rat
# Protocol: (§1) Membrane Preparation and Radioligand Binding.
# HEK-293 cells stably expressing rat TAAR1 were maintained at 37° C. and 5% CO2 in DMEM high glucose medium, containing fetal calf serum (10%, heat inactivated for 30 min at 56° C.), penicillin/streptomycin (1%), and 375 μg/ml geneticin (Gibco). Cells were released from culture flasks using trypsin/EDTA, harvested, washed twice with ice-cold PBS (without Ca^2+ and Mg^2+), pelleted at 1,000 rpm for 5 min at 4° C., frozen and stored at −80° C. Frozen pellets were suspended in 20 ml HEPES-NaOH (20 mM, pH 7.4) containing 10 mM EDTA and homogenized with a Polytron (PT 6000, Kinematica) at 14,000 rpm for 20 s. The homogenate was centrifuged at 48,000×g for 30 min at 4° C. Subsequently, the supernatant was removed and discarded, and the pellet resuspended in 20 ml HEPES-NaOH (20 mM, pH 7.4) containing 0.1 mM EDTA using the Polytron (20 s at 14,000 rpm). This procedure was repeated and the final pellet resuspended in HEPES-NaOH containing 0.1 mM EDTA and homogenized using the Polytron. Typically, aliquots of 2 ml membrane portions were stored at −80° C. With each new membrane batch the dissociation constant (Kd) was determined via a saturation curve. […] Nonspecific binding was defined as the amount of [H]—(S)-4-[(ethyl-phenyl-amino)-methyl]-4,5-dihydro-oxazol-2-ylamine bound in the presence of 10 M unlabeled ligand. All compounds were tested at a broad range of concentrations (10 pM to 10 μM) in duplicates. […] The 96 deep well plates were incubated for 1 hr at 4° C. Incubations were terminated by rapid filtration through Unifilter-96 plates (Packard Instrument Company) and glass filters GF/C (Perkin Elmer) presoaked for 1 hr in polyethylenimine (0.3%) and washed 3 times with 1 ml of cold binding buffer. After addition of 45 μl of Microscint 40 (PerkinElmer) the Unifilter-96 plate was sealed and after 1 hr the radioactivity counted using a TopCount Microplate Scintillation Counter (Packard Instrument Company).
# mouse TAAR1 = mouse TAAR1 (Mus musculus (Mouse), UniProt Q923Y8); test: Radioligand binding assay on mouse TAAR1
# mouse TAAR1, sequence (Q923Y8 whole entry): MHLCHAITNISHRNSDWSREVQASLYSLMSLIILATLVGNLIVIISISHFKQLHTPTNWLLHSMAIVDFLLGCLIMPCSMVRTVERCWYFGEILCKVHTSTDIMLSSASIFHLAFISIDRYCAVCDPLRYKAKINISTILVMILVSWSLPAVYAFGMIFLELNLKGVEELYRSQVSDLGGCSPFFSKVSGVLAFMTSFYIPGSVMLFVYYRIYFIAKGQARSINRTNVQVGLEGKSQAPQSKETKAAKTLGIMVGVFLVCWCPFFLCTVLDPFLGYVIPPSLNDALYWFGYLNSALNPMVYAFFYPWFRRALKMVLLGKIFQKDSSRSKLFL
# Protocol: as §1
# HEK-293 cells stably expressing mouse TAAR1 were maintained at 37° C. and 5% CO2 in DMEM high glucose medium, containing fetal calf serum (10%, heat inactivated for 30 min at 56° C.), penicillin/streptomycin (1%), and 375 μg/ml geneticin (Gibco). Cells were released from culture flasks using trypsin/EDTA, harvested, washed twice with ice-cold PBS (without Ca^2+ and Mg^2+), pelleted at 1,000 rpm for 5 min at 4° C., frozen and stored at −80° C. Frozen pellets were suspended in 20 ml HEPES-NaOH (20 mM, pH 7.4) containing 10 mM EDTA and homogenized with a Polytron (PT 6000, Kinematica) at 14,000 rpm for 20 s. The homogenate was centrifuged at 48,000×g for 30 min at 4° C. Subsequently, the supernatant was removed and discarded, and the pellet resuspended in 20 ml HEPES-NaOH (20 mM, pH 7.4) containing 0.1 mM EDTA using the Polytron (20 s at 14,000 rpm). This procedure was repeated and the final pellet resuspended in HEPES-NaOH containing 0.1 mM EDTA and homogenized using the Polytron. Typically, aliquots of 2 ml membrane portions were stored at −80° C. With each new membrane batch the dissociation constant (Kd) was determined via a saturation curve. […] Nonspecific binding was defined as the amount of ^3[H]—(S)-4-[(ethyl-phenyl-amino)-methyl]-4,5-dihydro-oxazol-2-ylamine bound in the presence of 10 M unlabeled ligand. All compounds were tested at a broad range of concentrations (10 pM to 10 μM) in duplicates. […] The 96 deep well plates were incubated for 1 hr at 4° C. Incubations were terminated by rapid filtration through Unifilter-96 plates (Packard Instrument Company) and glass filters GF/C (Perkin Elmer) presoaked for 1 hr in polyethylenimine (0.3%) and washed 3 times with 1 ml of cold binding buffer. After addition of 45 μl of Microscint 40 (PerkinElmer) the Unifilter-96 plate was sealed and after 1 hr the radioactivity counted using a TopCount Microplate Scintillation Counter (Packard Instrument Company).
# rat TAAR1, sequence (Q923Y9 whole entry): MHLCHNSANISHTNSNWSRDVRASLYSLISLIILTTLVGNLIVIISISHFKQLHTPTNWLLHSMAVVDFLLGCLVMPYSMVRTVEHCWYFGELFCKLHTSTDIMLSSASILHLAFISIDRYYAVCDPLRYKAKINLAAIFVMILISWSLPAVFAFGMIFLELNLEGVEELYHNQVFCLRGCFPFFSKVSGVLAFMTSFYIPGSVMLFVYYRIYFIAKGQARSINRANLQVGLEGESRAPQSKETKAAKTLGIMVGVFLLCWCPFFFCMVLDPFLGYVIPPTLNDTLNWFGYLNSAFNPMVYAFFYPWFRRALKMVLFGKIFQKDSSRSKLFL
SMILES,Ki (rat TAAR1) [µM],Ki (mouse TAAR1) [µM],"Kd (rat TAAR1; read-out: dissociation constant (Kd) of the radioligand, rat TAAR1 membranes, saturation curve, usual value) [µM]","Kd (mouse TAAR1; read-out: dissociation constant (Kd) of the radioligand, mouse TAAR1 membranes, saturation curve, usual value) [µM]"
"COc1ccc(NC(=O)Nc2ccc(C=C3CNC3)cc2)cc1 [Example 117, 1-[4-(azetidin-3-ylidenemethyl)phenyl]-3-(4-methoxyphenyl)urea]",0.0154,0.0277,–,–
"O=C(Nc1ccc(C[C@H]2CCN2)cc1)c1cnc(C(F)(F)F)nc1 [Example 80, N-[4-[[(2S)-azetidin-2-yl]methyl]phenyl]-2-(trifluoromethyl)pyrimidine-5-carboxamide]",0.026,0.0272,–,–
"COc1cc(C(=O)Nc2ccc(C[C@H]3NC[C@H]3F)cc2)ccn1 [Example 120, N-(4-(((2R,3R)-3-fluoroazetidin-2-yl)methyl)phenyl)-2-methoxyisonicotinamide]",> 1.5,0.0103,–,–
"O=C(Nc1ccc(C[C@H]2CCN2)cc1)c1ccc(Cl)cc1 [Example 71, N-[4-[[(2S)-azetidin-2-yl]methyl]phenyl]-4-chloro-benzamide]",0.0065,0.001,–,–
"O=C(Nc1ccc(OC2CNC2)c(F)c1)c1cnc(C(F)(F)F)nc1 [Example 26, N-[4-(azetidin-3-yloxy)-3-fluoro-phenyl]-2-(trifluoromethyl)pyrimidine-5-carboxamide]",0.0238,0.0161,–,–
"Brc1ccc(C=C2CNC2)cc1 [Example 50, 3-[(4-bromophenyl)methylene]azetidine]",0.0998,0.793,–,–
"COc1cc(C(=O)Nc2ccc(CC3(F)CNC3)cc2)nc(C(F)(F)F)n1 [Example 68, 6 N-[4-[(3-fluoroazetidin-3-yl)methyl]phenyl]-6-methoxy-2-(trifluoromethyl)pyrimidine-4-carboxamide]",0.0071,0.0064,–,–
"CCc1n[nH]c(C(=O)Nc2ccc(OC3CNC3)cc2)c1Cl [Example 41, N-[4-(azetidin-3-yloxy)phenyl]-4-chloro-3-ethyl-1H-pyrazole-5-carboxamide]",0.0392,0.0035,–,–
"Cn1nc(C(F)(F)F)c(Cl)c1C(=O)Nc1ccc(OC2CNC2)cc1 [Example 29, N-[4-(azetidin-3-yloxy)phenyl]-4-chloro-2-methyl-5-(trifluoromethyl)pyrazole-3-carboxamide]",0.0503,0.029,–,–
"O=C(Nc1ccc(CC2(F)CNC2)cc1)c1n[nH]c(C2CC2)c1Cl [Example 56, 4-chloro-3-cyclopropyl-N-[4-[(3-fluoroazetidin-3-yl)methyl]phenyl]-1H-pyrazole-5-carboxamide]",0.0151,0.0034,–,–
"O=C(Nc1ccc(CC2(F)CNC2)cc1)c1cnc(C(F)(F)F)cn1 [Example 70, N-[4-[(3-fluoroazetidin-3-yl)methyl]phenyl]-5-(trifluoromethyl)pyrazine-2-carboxamide]",0.0099,0.0069,–,–
"Cc1cc(C(=O)Nc2ccc(C=C3CNC3)c(F)c2)nc(C(F)(F)F)n1 [Example 85, N-(4-(azetidin-3-ylidenemethyl)-3-fluorophenyl)-6-methyl-2-(trifluoromethyl)pyrimidine-4-carboxamide]",0.0134,0.0509,–,–
"O=C(Nc1ccc(C=C2CNC2)cc1)c1ccc(Cl)nc1 [Example 65, N-[4-(azetidin-3-ylidenemethyl)phenyl]-6-chloro-pyridine-3-carboxamide]",0.023,0.0026,–,–
"O=C(Nc1ccc(OC2CNC2)cc1)c1[nH]nc(C(F)(F)F)c1Cl [Example 40, N-[4-(azetidin-3-yloxy)phenyl]-4-chloro-3-(trifluoromethyl)-1H-pyrazole-5-carboxamide]",0.0142,0.0028,–,–
"O=C(Nc1ccc(SC2CNC2)cc1)Nc1ccc(C(F)(F)F)cc1 [Example 110, 1-[4-(azetidin-3-ylsulfanyl)phenyl]-3-[4-(trifluoromethyl)phenyl]urea]",0.0081,0.0131,–,–
"CO[C@@H]1CN[C@@H]1Cc1ccccc1 [Example 100, (2R,3R)-2-benzyl-3-methoxyazetidine]",0.151,0.317,–,–
"O=C(Nc1ccc(C[C@H]2NC[C@H]2F)cc1)c1cnc(C2CC2)nc1 [Example 124, 2-cyclopropyl-N-(4-(((2R,3R)-3-fluoroazetidin-2-yl)methyl)phenyl)pyrimidine-5-carboxamide]",> 1.5,0.0554,–,–
"O=C(Nc1ccc(OC2CNC2)cc1)c1[nH]nc(-c2ccc(Cl)cc2)c1Cl [Example 34, N-[4-(azetidin-3-yloxy)phenyl]-4-chloro-3-(4-chlorophenyl)-1H-pyrazole-5-carboxamide]",0.0021,0.0009,–,–
"O=C(Nc1ccc(OC2CNC2)c(F)c1)c1cnc(C2CC2)nc1 [Example 27, N-[4-(azetidin-3-yloxy)-3-fluoro-phenyl]-2-cyclopropyl-pyrimidine-5-carboxamide]",–,0.0155,–,–
"O=C(Nc1ccc(OC2CNC2)cc1F)c1cnc(C2CC2)nc1 [Example 38, N-[4-(azetidin-3-yloxy)-2-fluoro-phenyl]-2-cyclopropyl-pyrimidine-5-carboxamide]",0.853,0.0351,–,–
"O=C(Nc1ccc(C[C@@H]2CCN2)cc1)c1ccc(Cl)cc1 [Example 72, N-[4-[[(2R)-azetidin-2-yl]methyl]phenyl]-4-chloro-benzamide]",0.0686,0.0039,–,–
O=C(Nc1ccc(CC2CNC2)cc1)Nc1cccc(Cl)c1 [Example 115],0.0138,0.0272,–,–
"FC(F)(c1ccc(Br)cc1)C1CNC1 [Example 49, 3-[(4-bromophenyl)-difluoro-methyl]azetidine]",0.291,1.39,–,–

SMILES,Ki (rat TAAR1) [µM],Ki (mouse TAAR1) [µM],"Kd (rat TAAR1; read-out: dissociation constant (Kd) of the radioligand, rat TAAR1 membranes, saturation curve, usual value) [µM]","Kd (mouse TAAR1; read-out: dissociation constant (Kd) of the radioligand, mouse TAAR1 membranes, saturation curve, usual value) [µM]"
"COc1ccc(NC(=O)Nc2ccc(SC3CNC3)cc2)cc1 [Example 111, 1-[4-(azetidin-3-ylsulfanyl)phenyl]-3-(4-methoxyphenyl)urea]",0.139,0.161,–,–
"O=C(Nc1ccc(Cl)nc1)c1ccc(OC2CNC2)cc1 [Example 30, 4-(azetidin-3-yloxy)-N-(6-chloropyridin-3-yl)benzamide]",0.527,0.0191,–,–
"O=C(Nc1ccc(C(F)(F)C2CNC2)cc1)c1ccc(Cl)cc1 [Example 51, N-[4-[azetidin-3-yl(difluoro)methyl]phenyl]-4-chloro-benzamide]",0.0515,0.0011,–,–
"COc1ccc(C[C@@H]2NC[C@H]2F)cc1 [Example 97, (2S,3R)-3-fluoro-2-(4-methoxybenzyl)azetidine]",–,1.63,–,–
"O=C(Nc1ccc(OC2CNC2)cc1)c1cnc(C(F)(F)F)cn1 [Example 75, N-[4-(azetidin-3-yloxy)phenyl]-5-(trifluoromethyl)pyrazine-2-carboxamide]",0.0106,0.0052,–,–
"O=C(Nc1ccc(SC2CNC2)cc1)c1cnc(C(F)(F)F)nc1 [Example 45, N-[4-(azetidin-3-ylsulfanyl)phenyl]-2-(trifluoromethyl)pyrimidine-5-carboxamide]",0.129,0.0355,–,–
"Cc1ncc(C(=O)Nc2ccc(OC3CNC3)cc2)cn1 [Example 16, N-[4-(azetidin-3-yloxy)phenyl]-2-methyl-pyrimidine-5-carboxamide]",0.633,0.0746,–,–
"F[C@H]1CN[C@@H]1Cc1ccccc1 [Example 93, (2R,3S)-2-benzyl-3-fluoroazetidine]",2.09,1.28,–,–
"Cc1[nH]nc(C(=O)Nc2ccc(OC3CNC3)cc2)c1Br [Example 48, N-[4-(azetidin-3-yloxy)phenyl]-4-bromo-3-methyl-1H-pyrazole-5-carboxamide]",0.0943,0.0143,–,–
"O=C(Nc1ccc(OC2CNC2)cc1)c1cnc(C2CC2)nc1 [Example 14, N-(4-(azetidin-3-yloxy)phenyl)-2-cyclopropylpyrimidine-5-carboxamide]",0.1,0.0149,–,–
CCN(C[C@H]1COC(N)=N1)c1ccccc1 [reference compound],–,–,~0.0023,~0.0007
"c1ccc(CC2CNC2)cc1 [Example 1, 3-benzylazetidine]",0.701,1.57,–,–
"O=C(Nc1ccccc1)c1ccc(OC2CNC2)cc1 [Example 20, 4-(azetidin-3-yloxy)-N-phenyl-benzamide]",1.03,0.478,–,–
"O=C(Nc1ccc(OC2CNC2)cc1F)c1[nH]nc(C2CC2)c1Cl [Example 36, N-[4-(azetidin-3-yloxy)-2-fluoro-phenyl]-4-chloro-3-cyclopropyl-1H-pyrazole-5-carboxamide]",0.029,0.0139,–,–
"O=C(Nc1ccc(OC2CNC2)cc1)c1ccc(Cl)cc1 [Example 4, N-(4-(azetidin-3-yloxy)phenyl)-4-chlorobenzamide]",0.0087,0.0011,–,–
"FC1(Cc2ccccc2)CNC1 [Example 46, 3-benzyl-3-fluoro-azetidine]",0.552,1.99,–,–
"O=C(Nc1ccc(OC2CNC2)cc1)c1cnc(OCC(F)(F)F)cn1 [Example 77, N-[4-(azetidin-3-yloxy)phenyl]-5-(2,2,2-trifluoroethoxy)pyrazine-2-carboxamide]",0.0187,0.004,–,–
"O=C(Nc1ccc(OC2CNC2)cc1)c1cnc(C(F)(F)F)nc1 [Example 6, N-(4-(azetidin-3-yloxy)phenyl)-2-(trifluoromethyl)pyrimidine-5-carboxamide]",–,0.0195,–,–
"COc1cc(C(=O)Nc2ccc(OC3CNC3)cc2)cc(C#N)n1 [Example 7, N-(4-(azetidin-3-yloxy)phenyl)-2-cyano-6-methoxyisonicotinamide]",–,0.0056,–,–
"COc1ccc(C[C@H]2NC[C@@H]2F)cc1 [Example 99, (2R,3S)-3-fluoro-2-(4-methoxybenzyl)azetidine]",–,0.2,–,–
"O=C(Nc1ccc(OC2CNC2)cc1)c1ccnc(C(F)(F)F)c1 [Example 5, N-(4-(azetidin-3-yloxy)phenyl)-2-(trifluoromethyl)isonicotinamide]",–,0.0123,–,–
"COc1ccc(C[C@@H]2NC[C@@H]2F)cc1 [Example 96, (2S,3S)-3-fluoro-2-(4-methoxybenzyl)azetidine]",–,2.76,–,–
"COc1ccc(C[C@H]2NC[C@H]2F)cc1 [Example 98, (2R,3R)-3-fluoro-2-(4-methoxybenzyl)azetidine]",–,0.2,–,–
